According to US20260224609A1, “TREATMENT OF GUT INFLAMMATORY DISEASES” (priority 2023, published 2026):

Legend:
[1] = system: Candida albicans; test: Candida albicans-induced colitis model; format: in vivo, Balb/C female mice; conditions: after 9 days; 150 mg/kg, curative
Method: The inventors have selected a group of Balb/C female mice under estradiol (2.5 mg/kg; 1 injection every 3 days, for 12 days) to develop a Candida albicans-induced colitis model.
The prevention treatment started during estradiol administration, whereas the curative treatments started 2 days after Candida inoculation. The mice were sacrificed 14 days after the inoculation.

[2] = system: 2,4,6-trinitrobenzene sulfonic acid (TNBS)-induced colitis; test: TNBS-induced colitis in rats; format: in vivo, rats (Sprague Dauwley)
Method: The inventors have developed a model based on 2,4,6-trinitrobenzene sulfonic acid (TNBS)-induced colitis in rats (Sprague Dauwley); 80 mg/kg. Colorectal distension is measured 14 days prior to the TNBS induction, as well as 21, 35 and 49 days after the TNBS induction.
The bacteria B. breve and La have been formulated in sticks for ingestion; the stability having been validated.

[3] = system: HT-29; test: Toxicity test CCK-8 on HT-29 cells under LPS; conditions: inflammatory conditions, LPS 10 ng/ml
Text: (§1) A cellular model with HT-29 and Caco-2 cells has been established.

[4] = system: Caco-2 cells; test: Toxicity test CCK-8 on Caco-2 cells; conditions: inflammatory conditions, LPS 1 mg/ml
Text: as §1

[5] = system: ileo-cecal lesions; test: IBD model: ileo-cecal resection in transgenic HLA-B27 rats; format: in vivo; conditions: 6 weeks after resection; treatment from week 8
Method: Transgenic HLA-B27 rats have been selected by the inventors as a model for ileo-cecal lesions in Humans (for instance common in Crohn's disease).
Twelve weeks-old rats (40, in five pools) are treated for the resection of distal ileum with proximal colon and the inflammation level was evaluated 6 weeks thereafter.

OC(Cn1cncn1)(Cn1cncn1)c1ccc(F)cc1F [Fluconazole]
mice remaining infected [1]: no mice remaining infected

Oc1cc(O)cc(O)c1 [Spasfon, Phloroglucinol]
macroscopic evaluation (Wallace scoring) ([2]; TNBS condition: 2.25): 1.56 | histological analysis of the inflammation (Ameho) ([2]; TNBS+vehicle: 2.00): 1.56 | pain threshold ([2]; also with Vitamin D): did not increase the pain threshold

C=C1CC[C@H](O)C/C1=C/C=C1\CCC[C@]2(C)[C@@H]([C@H](C)CCCC(C)C)CC[C@@H]12 [Vitamin D, cholecalciferol (Vitamin D3)]
toxicity (CCK-8) [3]: no toxicity | toxicity (CCK-8) [4]: no toxicity

Nc1ccc(O)c(C(=O)O)c1 [pentasa]
post-operative relapses [5]: markedly reduced
